The target of one assay is T1, Toll-like receptor 7 (Homo sapiens, UniProt Q9NYK1).
T1 sequence (Q9NYK1 whole entry): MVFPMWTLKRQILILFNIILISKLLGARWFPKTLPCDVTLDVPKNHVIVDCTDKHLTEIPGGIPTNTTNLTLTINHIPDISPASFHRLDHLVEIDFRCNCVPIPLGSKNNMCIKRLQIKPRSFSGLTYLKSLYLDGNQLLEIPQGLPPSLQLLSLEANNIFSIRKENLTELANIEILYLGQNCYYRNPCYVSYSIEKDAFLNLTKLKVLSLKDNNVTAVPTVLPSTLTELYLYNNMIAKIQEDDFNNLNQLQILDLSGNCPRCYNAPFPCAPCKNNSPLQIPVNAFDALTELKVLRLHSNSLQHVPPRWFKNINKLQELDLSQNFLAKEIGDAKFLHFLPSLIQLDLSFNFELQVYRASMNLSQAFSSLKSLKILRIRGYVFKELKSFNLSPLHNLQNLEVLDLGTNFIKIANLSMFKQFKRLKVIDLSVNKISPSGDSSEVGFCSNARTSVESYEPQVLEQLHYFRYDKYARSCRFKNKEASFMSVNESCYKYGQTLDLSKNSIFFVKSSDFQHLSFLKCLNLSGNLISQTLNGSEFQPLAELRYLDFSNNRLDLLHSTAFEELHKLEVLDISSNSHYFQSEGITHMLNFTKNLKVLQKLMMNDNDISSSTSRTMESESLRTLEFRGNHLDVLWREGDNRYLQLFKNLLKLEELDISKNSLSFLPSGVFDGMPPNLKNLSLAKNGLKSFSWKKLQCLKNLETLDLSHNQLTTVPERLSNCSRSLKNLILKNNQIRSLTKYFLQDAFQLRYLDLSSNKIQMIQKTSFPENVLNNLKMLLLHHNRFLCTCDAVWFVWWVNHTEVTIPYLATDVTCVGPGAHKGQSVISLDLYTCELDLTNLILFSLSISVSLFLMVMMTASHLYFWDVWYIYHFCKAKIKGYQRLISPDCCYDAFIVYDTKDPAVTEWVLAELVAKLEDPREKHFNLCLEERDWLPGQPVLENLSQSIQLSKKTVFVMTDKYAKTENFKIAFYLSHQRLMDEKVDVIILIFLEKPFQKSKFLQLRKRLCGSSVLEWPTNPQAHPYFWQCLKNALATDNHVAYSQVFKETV
The experiment in a line: (§1) Pharmacological Assay: For TLR8 and TLR7 activity testing, HEK-Blue human TLR8 or TLR7 cells (Invivogen, San Diego, Calif., USA) are used, respectively. These cells are designed for studying the stimulation of human TLR8 or TLR7 by monitoring the activation of NF-κB. A SEAP (secreted embryonic alkaline phosphatase) reporter gene is placed under the control of the IFN-b minimal promoter fused to five NF-κB and AP-1-binding sites. Therefore the reporter expression is regulated by the NF-κB promoter upon stimulation of human TLR8 or TLR7 for 20 hours. The cell culture supernatant SEAP reporter activity was determined using Quanti Blue kit (Invivogen, San Diego, Ca, USA) at a wavelength of 640 nm, a detection medium that turns purple/blue in the presence of alkaline phosphatase.

The target of another assay is T2, Toll-like receptor 8 (Homo sapiens, UniProt Q9NR97).
T2 sequence (Q9NR97 whole entry): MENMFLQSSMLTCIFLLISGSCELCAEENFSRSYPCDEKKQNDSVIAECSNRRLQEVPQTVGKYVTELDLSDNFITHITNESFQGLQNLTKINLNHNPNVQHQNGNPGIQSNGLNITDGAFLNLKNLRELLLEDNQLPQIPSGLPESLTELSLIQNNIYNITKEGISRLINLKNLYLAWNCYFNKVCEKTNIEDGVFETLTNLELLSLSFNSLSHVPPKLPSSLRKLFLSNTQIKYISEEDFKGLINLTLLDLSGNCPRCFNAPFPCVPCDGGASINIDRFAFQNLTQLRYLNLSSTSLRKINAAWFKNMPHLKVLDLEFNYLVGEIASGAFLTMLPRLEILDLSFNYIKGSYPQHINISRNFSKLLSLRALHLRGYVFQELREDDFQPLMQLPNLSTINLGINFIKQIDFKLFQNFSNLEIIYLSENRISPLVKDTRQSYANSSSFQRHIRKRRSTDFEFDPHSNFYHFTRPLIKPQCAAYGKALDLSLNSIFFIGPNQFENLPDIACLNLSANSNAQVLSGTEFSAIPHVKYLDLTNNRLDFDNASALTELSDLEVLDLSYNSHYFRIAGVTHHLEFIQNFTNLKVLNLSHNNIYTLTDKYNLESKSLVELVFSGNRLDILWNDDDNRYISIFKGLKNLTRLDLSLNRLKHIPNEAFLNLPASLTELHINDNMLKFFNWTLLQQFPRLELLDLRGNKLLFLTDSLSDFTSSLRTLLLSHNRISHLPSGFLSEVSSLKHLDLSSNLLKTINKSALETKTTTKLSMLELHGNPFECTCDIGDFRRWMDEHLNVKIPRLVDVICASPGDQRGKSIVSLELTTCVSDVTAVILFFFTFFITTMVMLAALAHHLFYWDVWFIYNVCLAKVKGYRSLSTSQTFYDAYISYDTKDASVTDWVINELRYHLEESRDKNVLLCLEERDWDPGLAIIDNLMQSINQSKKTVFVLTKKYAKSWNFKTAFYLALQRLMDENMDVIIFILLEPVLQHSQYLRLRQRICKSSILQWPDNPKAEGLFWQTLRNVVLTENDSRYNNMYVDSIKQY
Described as §1.

Consider `CCCN(CCC)C(=O)C1=Cc2ccc(C(=O)N3CC(OCc4ccccc4)C3)cc2N=C(N)C1`, for which the results for the EC50 on Toll-like receptor 7 and on Toll-like receptor 8 were 15 µM and 0.004 µM, respectively.
